Assay results published in PMC12147183, “Lacritin cleavage-potentiated targeting of iron - respiratory reciprocity promotes bacterial death” (The Journal of Biological Chemistry, 2025).
Values after ≈ are worked out from the molar mass of the structure shown. Peptide text beside a SMILES is read from it.

Assays:
[1] = biological target: GKY20 (Homo sapiens, UniProt P00734); assay: Dot blot binding assay on immobilized GKY20; conditions: 20 μM peptide, 2 h at 35 °C, LI-COR detection
Protocol: After washing three times for 10 min, each with 10 ml of 10 mM Na2HPO4, 1.8 mM KH2PO4, 2.7 mM KCl, 137 mM NaCl (pH 7.2), nitrocellulose membranes were incubated overnight at 4 °C with 1 μg/ml of either rabbit polyclonal ab-C-term with specificity for the C-terminal 54 amino acids of lacritin ([86]) appropriate for N-104 or its analogs, or with rabbit anti-lacritin N-terminus antibody ab-N-term appropriate for C-95. Membranes washed three times for 10 min each with 10 ml of 10 mM Na2HPO4, 1.8 mM KH2PO4, 2.7 mM KCl, 137 mM NaCl (pH 7.2), were then incubated with 0.1 μg/ml of IRDye 680RD labeled donkey antirabbit IgG (926-68073, LI-COR) as described above for LI-COR Odyssey CLx detection.

[2] = test system: wild-type E. coli K-12; assay: Alamar Blue viability assay of wild-type E. coli K-12; assay type: cell-based, Escherichia coli; conditions: 100 μM, wild-type E. coli K-12 10^6 cfu/ml, 37 °C, hourly, n = 3
[3] = Surface plasmon resonance on chip-supported Gram-positive model membrane; assay type: binding; conditions: highest N-104 concentration, PC:PG Gram-positive model membrane
[4] = biological target: thrombin (F2) (Homo sapiens, UniProt P00734); assay: Affinity pulldown of human tears on peptide columns; assay type: binding; conditions: pooled human basal tears, 300 mOsm/l, 0.5 M KCl eluant, anti-F2 immunodetection
Protocol: Studies in this work abide by the Declaration of Helsinki principles. As per UVA IRB protocol 18,592, consented normal human volunteers were subjected to 0.5% proparacaine anesthesia of the eye to minimize reflex tearing. Human basal tears were then wicked for 5 min onto filter paper-like Schirmer strips. Those that had wicked a distance of at least 12 mm were subjected to 4 °C elution with 10 mM Na2HPO4, 1.8 mM KH2PO4, 2.7 mM KCl, 137 mM NaCl (pH 7.2) for a final total pooled tear volume of 170 μl. The pool was diluted five-fold in 10 mM Na2HPO4, 1.8 mM KH2PO4, 2.7 mM KCl, and 137 mM NaCl (pH 7.2) with protease inhibitors and subjected to end-over-end mixing with a 100 μl precolumn of Pierce Agarose followed by equal division by protein concentration into each of 100 μl of N-104 or C-95 columns. The solution was mixed for 5 h at 4 °C. Columns were subjected to washing with 10 mM Na2HPO4, 1.8 mM KH2PO4, 2.7 mM KCl, and 137 mM NaCl (pH 7.2) containing the same protease inhibitors followed by elution using KCl (0.3, 0.5, and 1.0 M KCl) in the same buffer. The 0.5 M KCl eluate was submitted for mass spectrometric sequencing by UVA's Biomolecular Analysis Facility, as previously noted. The acquired data were analyzed by database searching using the Sequest search algorithm against UniProt H. sapiens. […]

[5] = test system: P. aeruginosa PA14; assay: SYTOX Orange PA14 membrane disruption assay; conditions: 25 μM peptide, PA14 10^7 cfu/ml, 1 h at 35 °C, 5 μM SYTOX Orange; positive control 70% ethanol
[6] = test system: P. aeruginosa PA14
Protocol: After overnight incubation at 37 °C, plates were analyzed on a ChemiDoc XRS (Bio-Rad).

[7] = test system: P. aeruginosa PA14; assay: N-104 sub-MIC generational resistance assay; assay type: cell-based, Pseudomonas aeruginosa; conditions: PA14 treated at subminimal inhibitory and minimal inhibitory concentrations, n = 2
Protocol: Supplementary Fig. 2. Thirty generations of PA14 fail to develop stable N-104 resistance together with biological replicates related to Fig. 2. A, Schematic of the N-104 sub-minimal inhibitory concentration (‘sub-MIC’) N-104 resistant assay. […] . This process was repeated through 30 generations. B, Generational fold change of N-104 MIC over 30 generations. The original sub-MIC N-104 concentration was 2 µM, for which there was no initial sub-MIC change ([mean], n = 2, *p<0.05; ns, not significant [Friedman ANOVA with Dunn's multiple comparisons test]). C, Biological replicates of the N-104 sub-MIC resistant assay. Scale bar is 2 mm. […] Scale bar is 2 mm.

[8] = test system: PA14 fed to C. elegans; assay type: in vivo, Caenorhabditis elegans
Protocol: L1 stage C. elegans worms on Nematode Growth Medium (NGM) plates with E. coli OP50 as a food source were cultivated at room temperature in a humidified chamber until maturation into sterile young adults ([84]), carefully washed off with M9 minimal salts and then collected by pelleting (1200g, 2 min). […] After 3 days, bacteria and debris were removed leaving 50 μl per well of worms to which 50 μl of 6 μM SYTOX Orange was added in M9 minimal salts. The next day, images were captured using both transmission and epifluorescence (excitation/detection = 535/610 nm) on an AMG EVOS FL AMF-4301 fluorescence microscope (Thermo Fisher Scientific).

Compound | binding to nitrocellulose-immobilized GKY20 [1] | bacterial metabolic activity (Alamar Blue) [2] | SPR response after buffer wash versus baseline [3] | binding of tear thrombin to immobilized peptide [4] | membrane disruption (SYTOX Orange uptake) [5] | N-104 resistance of PA14 ΔyaiW in CFU assay ([6]; 0, 2 or 5 μM N-104, 10^6 cfu/ml, n = 3) | bactericidal efficacy versus osmolarity ([6]; 0 to 400 μM N-104 in 30 or 300 mOsm/l phosphate buffer, 8 h, n = 3) | minimum inhibitory concentration (MIC) ([6]; PA14, 8 h) [µM] | development of resistance over 30 successive generations [7] | N-104 resistance of PA14 ΔyaiW in C. elegans survival assay ([8]; 0 or 50 μM N-104, 5 h, 10^7 cfu/ml, n = 3) | viability of C. elegans fed N-104 alone ([8]; 100 μM N-104 without PA14, 3 days) | survival of C. elegans fed peptide-treated PA14 ([8]; PA14 10^7 cfu/ml treated 5 h with 100 μM peptide (legend; method says 50 μM), fed to 50 worms for 3 days, SYTOX Orange, n = 3)
C[C@H](NC(=O)CNC(=O)[C@@H](NC(=O)[C@H](CO)NC(=O)[C@H](CC(=O)O)NC(=O)[C@H](CO)NC(=O)[C@H](CO)NC(=O)[C@H](C)NC(=O)[C@H](CC(=O)O)NC(=O)[C@@H](N)CCC(=O)O)[C@@H](C)O)C(=O)N[C@@H](CC(=O)O)C(=O)N1CCC[C@H]1C(=O)N[C@@H](C)C(=O)N[C@@H](CCC(N)=O)C(=O)N[C@@H](CCC(=O)O)C(=O)N[C@@H](C)C(=O)NCC(=O)N[C@H](C(=O)N[C@@H](CO)C(=O)N[C@@H](CCCCN)C(=O)N1CCC[C@H]1C(=O)N[C@@H](CC(N)=O)C(=O)N[C@@H](CCC(=O)O)C(=O)N[C@@H](CCC(=O)O)C(N)=O)[C@@H](C)O [C-95, reference compound] (H-EDASSDSTGADPAQEAGTSKPNEE-NH2) | Only N-104 bound to GKY20 | – | – | – | – | – | – | – | – | – | – | –
CC(=O)N[C@@H](C)C(=O)N[C@@H](CCC(N)=O)C(=O)N[C@@H](CCCCN)C(=O)N[C@@H](CC(C)C)C(=O)N[C@@H](CC(C)C)C(=O)N[C@@H](CCCCN)C(=O)N[C@@H](CCCCN)C(=O)N[C@@H](Cc1ccccc1)C(=O)N[C@@H](CO)C(=O)N[C@@H](CC(C)C)C(=O)N[C@@H](CC(C)C)C(=O)N[C@@H](CCCCN)C(=O)N1CCC[C@H]1C(=O)N[C@@H](Cc1c[nH]c2ccccc12)C(=O)N[C@@H](C)C(=O)O [N-104] (Ac-AQKLLKKFSLLKPWA-OH) | bound to GKY20 | inhibitory | slightly below baseline | binds thrombin | no SYTOX Orange uptake was observed | partially resistant | diminishes as osmolarity increases | 2 (≈ 3.63 µg/mL) | No stable resistance was apparent | partially resistant | did not affect viability | fully survived
